From US20190201430A1, “TREATING OCULAR NEOVASCULARIZATION” (Massachusetts Eye and Ear Infirmary, priority 2014, published 2019)
Structures can show the parent of a compound that is named as a salt.

Assays:
endothelial cells = details: in the absence of VEGF; cited from earlier work
caveolin-1 [1] = assay: Western blotting of H2O2 induced caveolin-1 phosphorylation in HUVEC; format: cell-based, human; details: for effect of inhibitor pretreatment on the inhibitory effect of AICAR on H2O2 induced caveolin-1 phosphorylation: DPY 8 μM or IODO 0.4 μM 1 h, AICAR 2 mM 2 h, H2O2 2 mM 30 min, FIG. 2
Method: (§1) HUVECs (Lonza, Walkersville, Md.) were cultured in Endothelial Growth Medium (EGM, Lonza, Walkersville, Md.). For all experiments, cells were grown at 37° C. in a humidified atmosphere of 5% CO2 and 95% air. Experiments were performed on cells below passage 3 to 6 grown to 80-90% confluence.
(§2) Protein extraction and western blotting were carried out as described previously (Morizane et al. JBC). Densitometric analysis of bands was performed using ImageJ software. Lane-loading differences were normalized by β-actin.
(§3) Cells were transfected with siRNAs using Nucleofection kit (Amaxa Biosysteins, Gaithersburg, Md.), following the manufacturer's protocol. The medium was changed at 6 h after transfection. The down-regulation of each protein was evaluated at 3 days after nucleofection.

caveolin-1 [2] = assay: Western blotting of VEGF induced caveolin-1 phosphorylation in HUVECs; format: cell-based, human
Method: (§4) Human umbilical vein endothelial cells (HUVECs) were cultured in endothelial growth medium (EGM, Lonza, Walkersville, Md.). Normal human dermal fibroblasts (NHDFs) were cultured in fibroblast basal medium (ATCC, Rockville, Md.). Cells were grown at 37° C. in a humidified atmosphere of 95% air, 5% CO2. Experiments were performed on cells below passage 3 to 6 grown to 80%-90% confluence.
(§5) Protein extraction and Western blotting were carried out as described previously (Morizane et al. JBC (26)). We conducted a densitometric analysis of bands using ImageJ software. Lane-loading differences were normalized by β-actin.
(§6) Cells were transfected with siRNAs using a Nucleofection kit (Amaxa Biosystems, Gaithersburg, Md.), following the manufacturer's protocol. The medium was changed 6 h after transfection. The down-regulation of each protein was evaluated 3 days after nucleofection.

c-Abl [3] = assay: Western blotting of H2O2 induced c-Abl phosphorylation in HUVEC; format: cell-based, human; details: DPY 8 μM or IODO 0.4 μM 1 h, AICAR 2 mM 2 h, H2O2 2 mM 30 min; FIG. 2
Method: as §1, §2, §3

AMPK [4] = assay: Western blotting of AMPK phosphorylation in HUVEC (Example 1); format: cell-based, human; details: DPY or IODO 1 h, then AICAR 2 mM 2 h, FIG. 2B,F
Method: as §1, §2

prdx1/c-Abl complex [5] = assay: Co-immunoprecipitation of prdx1 and c-Abl under H2O2; format: cell-based, human; details: IODO before AICAR and H2O2; FIG. 6D
Method: Immunoprecipitation was performed with the Universal Magnetic Co-IP Kit (Active Motif North America, Carlsbad, Calif.), according to the manufacturer's instruction.
as §3

Akt = assay: Western blotting of Akt phosphorylation in HUVECs (VEGF); format: cell-based, human
Method: as §4, §5, §6

AMPK [6] = assay: Western blotting of AMPK phosphorylation in HUVECs (Example 2); format: cell-based, human
Method: as §4, §5

PTEN = assay: Western blotting of PTEN phosphorylation in HUVECs; format: cell-based, human; details: IODO 0.1 μM 60 min, then AICAR 2 mM; FIG. 9A,D
Method: as §4, §5

c-Abl [7] = assay: Western blotting of VEGF induced c-Abl phosphorylation in HUVECs; format: cell-based, human; details: IODO 0.4 μM 1 h, AICAR 2 mM 2 h, VEGF 12.5 ng/mL 10 min; FIG. 12D,E
Method: as §4, §5, §6

prdx1/c-Abl complex [8] = assay: Co-immunoprecipitation of prdx1 and c-Abl under VEGF; format: cell-based, human; details: AK inhibitor IODO; FIG. 15D,E
Method: Immunoprecipitation was performed with the Universal Magnetic Co-IP Kit (Active Motif North America, Carlsbad, Calif.) according to the manufacturer's instruction.
as §6

[9] = IODO 0.4 μM 1 h, AICAR 2 mM 2 h, VEGF 12.5 ng/mL 10 min, FIG. 12D,E

In the case of `N#Cc1c(O)c2c(-c3ccc(-c4ccccc4O)cc3)csc2[nH]c1=O` [A769662, 4-hydroxy-3-[4-(2-hydroxyphenyl)phenyl]-6-oxo-7H-thieno[2,3-b]pyridine-5-carbonitrile], the endothelial proliferation (endothelial cells) is given as “suppressed endothelial proliferation”.

For `Cc1ccc(NC(=O)c2ccc(CN3CCN(C)CC3)cc2)cc1Nc1nccc(-c2cccnc2)n1` [imatinib mesylate, Imatinib mesylate], the “H2O2 induced phosphorylation of caveolin-1” value (caveolin-1 [1]; HUVEC, imatinib mesylate 10 or 20 uM for 24, 48 or 72 h, then H2O2 2 mM 30 min, FIG. 5A,B) was “inhibited H2O2 induced phosphorylation of both caveolin-1 and c-Abl dose- and time-dependently” and the “VEGF-induced phosphorylation of caveolin-1” value (caveolin-1 [2]; imatinib mesylate 10 or 20 μM for 24, 48 or 72 h, then VEGF 12.5 ng/mL 10 min, FIG. 14A,C) was “inhibited the VEGF-induced phosphorylation of caveolin-1 and c-Abl in a time and dose dependent manner”.

With `Nc1ncnc2c1c(I)cn2[C@@H]1O[C@H](CO)[C@@H](O)[C@H]1O` [IODO, 5-Iodotubericidin] the “effect of inhibitor pretreatment on the inhibitory effect of AICAR on H2O2 induced caveolin-1 phosphorylation” value (caveolin-1 [1]) was “significantly restored”, the “effect of inhibitor pretreatment on the inhibitory effect of AICAR on H2O2 induced c-Abl phosphorylation” value (c-Abl [3]) was “significantly restored” and the “AICAR induced AMPK phosphorylation after inhibitor pretreatment” value (AMPK [4]) was “inhibited AICAR induced AMPK phosphorylation dose-dependently”. For the same molecule, the “prdx1/c-Abl dissociation with IODO prior to H2O2 and AICAR” value (prdx1/c-Abl complex [5]) was “restored the dissociation”, the “effect of IODO pretreatment on AICAR induced Akt dephosphorylation” value (Akt; IODO 0.1 μM 60 min, then AICAR 2 mM, FIG. 9A,C) was “suppressed and delayed” and the “effect of IODO on the inhibitory effect of AICAR on VEGF induced Akt phosphorylation” value (Akt; [9]) was “significantly abolished”. The “effect of IODO pretreatment on AICAR induced AMPK phosphorylation” value (AMPK [6]; IODO 0.1 μM 60 min, then AICAR 2 mM, FIG. 9A,B) was “suppressed and delayed”, the “effect of IODO pretreatment on AICAR induced PTEN phosphorylation” value (PTEN) was “suppressed and delayed” and the “effect of IODO on the inhibitory effect of AICAR on VEGF induced caveolin-1 phosphorylation” value (caveolin-1 [2]; [9]) was “significantly abolished”. For the same molecule, the “effect of IODO on the inhibitory effect of AICAR on VEGF induced c-Abl phosphorylation” value (c-Abl [7]) was “significantly abolished” and the “effect of IODO on AICAR inhibition of VEGF induced prdx1/c-Abl dissociation” value (prdx1/c-Abl complex [8]) was “abrogated”.

For `OCCN(CCO)c1nc(N2CCCCC2)c2nc(N(CCO)CCO)nc(N3CCCCC3)c2n1` [DPY, dipyridamole], the “effect of inhibitor pretreatment on the inhibitory effect of AICAR on H2O2 induced caveolin-1 phosphorylation” value (caveolin-1 [1]) was “significantly restored”, the “effect of inhibitor pretreatment on the inhibitory effect of AICAR on H2O2 induced c-Abl phosphorylation” value (c-Abl [3]) was “significantly restored” and the “AICAR induced AMPK phosphorylation after inhibitor pretreatment” value (AMPK [4]) was “inhibited AICAR induced AMPK phosphorylation dose-dependently”. The “AICAR induced AMPK phosphorylation after DPY pretreatment” value (AMPK [6]; each concentration of DPY 1 h, then AICAR 2 mM 2 h, FIG. 12B) was “inhibited AMPK phosphorylation”.
